{"source": "patent US8017350B2", "about": "“Glimepiride- and insulin-induced glycosylphosphatidylinositol-specific phospholipase C regulation” (Sanofi-Aventis Deutschland GmbH, priority 2004, dated 2011)", "system": "GPI-PLC, intact rat adipocytes", "test": "GPI-PLC activity in intact rat adipocytes (amphiphilic-to-hydrophilic conversion of endogenous 5'-Nuc, Gce1, aP)", "assay_type": "cell-based", "protocol": "Adipocytes isolated by digestion from epididymal fat pads of male rats (120-140 g, fed ad libitum, see Ref. 53 [Muller et al.; Mol. Cell. Biol. 21:[…] (2001)]) were washed twice in KRH (20 mM Hepes/KOH, pH 7.4, 1.2 mM KH2PO4, 140 mM NaCl, 4.7 mM KCl, 2.5 mM CaCl2, 1.2 mM MgSO4) containing 1% (w/v) BSA and then incubated in the same medium supplemented with 100 μg/ml gentamycin, 100 nM 1-methyl-2-phenylethyladenosine, 0.5 U/ml adenosine deaminase, 1 mM sodium pyruvate and 5 mM D-glucose in the absence or presence of GPI-2350 (prepared as 10 mM stock solution in DMSO, the final DMSO concentration in the in vitro and adipocyte incubations was kept constant at 0.5% at any inhibitor concentration), insulin or glimepiride (prepared as described in “Müller et al. (1994) J. Cell. Biol. 126:1267-1276”) at 37° C. in a shaking water bath at constant bubbling with 5% CO2/95% O2 at a final titer of 100 μl of packed cell volume per ml incubation volume (determined by aspiration of small aliquots into capillary hematocrit tubes and centrifugation for 60 s [seconds] in a microhematocrit centrifuge in order to determine the fractional occupation of the suspension by the adipocytes; 10% cytocrit corresponds to about 1.5×10^6 cells/ml) for the periods indicated. […]"}
{"smiles": "CCCCCCCCCCCCP1(=O)O[C@@H]2[C@H](O)[C@@H](O)[C@H](O)[C@@H](O)[C@@H]2O1", "note": "(some centres unmarked) [GPI-2350, myo-inositol-1,2-cyclo-dodecylphosphonic acid]", "values": [{"measurement": "IC50", "setting": "FIG. 8, read-out: concentration of half-maximal inhibition of the GPI-PLC", "value": 5, "unit": "µM"}, {"measurement": "reduction of basal and glimepiride-/insulin-stimulated GPI-PLC activity", "setting": "intact adipocytes, concentration-dependent", "value": "to lower than basal and similar levels"}]}
